Assay results published in patent publication US8883963B2 (Cadila Healthcare Limited, priority 2007, dated 2014).
Non-standard residues stand in square brackets, D forms with d. Residues, ends and D or L forms follow the SMILES beside them. ξ: configuration not given here. ξBip(2'-Et-4'-OMe) = CCc1cc(OC)ccc1-c1ccc(CC(N)C(=O)O)cc1; ξNva(5-(3,5-Me2-Ph)) = Cc1cc(C)cc(CCCC(N)C(=O)O)c1; ξNva(5-(3-Cl-Ph)) = NC(CCCc1cccc(Cl)c1)C(=O)O; Aib = CC(C)(N)C(=O)O

How the values were obtained:
[1] = system: C57BL/6J mice (mild hyperglycemic); assay: In vivo glucose reduction, acute single dose 120-min time-course, i.p. route; parameters: species or system mouse; unit not given here; settings: male C57BL/6J mice
Experimental: All the animal experiments were carried out according to the internationally valid guidelines following approval by the ‘Zydus Research Center animal ethical committee’.
Two days prior to the study, the animals were randomised and divided into 5 groups (n=6), based upon their fed glucose levels. On the day of experiment, food was withdrawn from all the cages, water was given ad-libitum and were kept for overnight fasting. Vehicle (normal saline)/test/standard compounds were administered intraperitoneally (i.p.) or orally, on a body weight basis.
(§1) Blood samples were centrifuged and the separated serum was immediately subjected for the glucose estimation. Serum for insulin estimation was stored at −70° C. until used for the insulin estimation. The glucose estimation was carried out with DPEC-GOD/POD method (Ranbaxy Fine Chemicals Limited, Diagnostic division, India), using Spectramax-190, in 96-microwell plate reader (Molecular devices Corporation, Sunnyvale, Calif.). […] The AUC and BCAUC obtained from graphs were analyzed for one way ANOVA, followed by Dunnett's post test, using Graph Pad prism software. Furthermore, the insulin estimation was carried out using rat/mouse insulin ELISA kit (Linco research, Missouri USA).

[2] = system: C57BL/6J mice (mild hyperglycemic); assay: In vivo glucose reduction, acute single dose 120-min time-course, oral route; parameters: species or system mouse; unit not given here; settings: male C57BL/6J mice, 2 μM/kg oral
Experimental: Acute single dose 120-min time-course experiments were carried out in male C57BL/6J or db/db mice, age 8-12 weeks, bred in-house. Animals were housed in groups of 6 animals per cage, for a week, in order to habituate them to vivarium conditions (25±4° C., 60-65% relative humidity, 12:12 h light:dark cycle, with lights on at 7.30 am). All the animal experiments were carried out according to the internationally valid guidelines following approval by the ‘Zydus Research Center animal ethical committee’.
Two days prior to the study, the animals were randomised and divided into 5 groups (n=6), based upon their fed glucose levels. On the day of experiment, food was withdrawn from all the cages, water was given ad-libitum and were kept for overnight fasting. Vehicle (normal saline)/test/standard compounds were administered intraperitoneally (i.p.) or orally, on a body weight basis. Soon after the 0 min. blood collection from each animal, the subsequent blood collections were done at 30, 60 and 120 or up to 240 min., via retro-orbital route, under light ether anesthesia (Chen, D., et al., Diabetes Obesity Metabolism, 2005, 7, 307. Kim, J. G. et al., Diabetes, 2003, 52, 751).
as §1, with “USA). Changes in the blood glucose levels, at 0, 30, 60 and 120 min, with selected peptidomimetics are shown in Table 7 (via ip route of administration) and Table 8 (via oral route of administration) respectively.” for “USA).”

Compound | blood glucose levels ([1]; 30 nM/kg i.p., 0 min) | blood glucose levels ([1]; 30 nM/kg i.p., 30 min) | blood glucose levels ([1]; 30 nM/kg i.p., 60 min) | blood glucose levels ([1]; 30 nM/kg i.p., 120 min) | blood glucose levels ([2]; 0 min) | blood glucose levels ([2]; 30 min) | blood glucose levels ([2]; 60 min) | blood glucose levels ([2]; 120 min) | blood glucose levels ([1]; 10 nM/kg i.p., 0 min) | blood glucose levels ([1]; 10 nM/kg i.p., 30 min) | blood glucose levels ([1]; 10 nM/kg i.p., 60 min) | blood glucose levels ([1]; 10 nM/kg i.p., 120 min) | blood glucose levels ([1]; 50 nM/kg i.p., 0 min) | blood glucose levels ([1]; 50 nM/kg i.p., 30 min) | blood glucose levels ([1]; 50 nM/kg i.p., 60 min) | blood glucose levels ([1]; 50 nM/kg i.p., 120 min) | blood glucose levels ([1]; 20 nM/kg i.p., 0 min) | blood glucose levels ([1]; 20 nM/kg i.p., 30 min) | blood glucose levels ([1]; 20 nM/kg i.p., 60 min) | blood glucose levels ([1]; 20 nM/kg i.p., 120 min)
CCc1cc(OC)ccc1-c1ccc(CC(NC(=O)[C@H](CC(=O)O)NC(=O)[C@H](CO)NC(=O)[C@@H](NC(=O)C(C)(Cc2ccccc2F)NC(=O)[C@@H](NC(=O)CNC(=O)C(CCC#N)NC(=O)C(C)(C)NC(=O)[C@@H](N)Cc2c[nH]cn2)[C@H](C)O)[C@H](C)O)C(=O)N(C)C(CCCc2ccccc2)C(N)=O)cc1 (single isomer, unassigned) [Seq. ID. 130] | 181 ± 5.2 | 119 ± 2.6 | 117 ± 2.1 | 119 ± 2.3 | 183 ± 2.4 | 116 ± 3.1 | 112 ± 4.8 | 110 ± 2.5 |  |  |  |  |  |  |  |  |  |  |  | 
CCc1cc(OC)ccc1-c1ccc(CC(NC(=O)[C@H](CC(=O)O)NC(=O)[C@H](CO)NC(=O)[C@@H](NC(=O)C(C)(Cc2ccccc2F)NC(=O)[C@@H](NC(=O)CNC(=O)[C@H](CC(C(F)(F)F)C(F)(F)F)NC(=O)C(C)(C)NC(=O)[C@@H](N)Cc2c[nH]cn2)[C@@H](C)O)[C@H](C)O)C(=O)NC(CCCc2ccccc2)C(N)=O)cc1 (single isomer, unassigned) [Seq. ID. 225] |  |  |  |  | 183 ± 2.3 | 119 ± 3.0 | 112 ± 4.3 | 109 ± 2.6 | 184 ± 5.0 | 122 ± 3.8 | 128 ± 2.1 | 149 ± 2.3 |  |  |  |  |  |  |  | 
CCc1cc(OC)ccc1-c1ccc(CC(NC(=O)[C@H](CC(=O)O)NC(=O)[C@H](CO)NC(=O)[C@@H](NC(=O)[C@H](Cc2ccccc2)NC(=O)[C@@H](NC(=O)CNC(=O)[C@H](CCC(N)=O)NC(=O)C(C)(C)NC(=O)[C@@H](N)Cc2c[nH]cn2)[C@@H](C)O)[C@@H](C)O)C(=O)NC(CCCc2cc(C)cc(C)c2)C(N)=O)cc1 (some centres unmarked) [Seq. ID. 18] (H-H[Aib]QGTFTSD[ξBip(2'-Et-4'-OMe)][ξNva(5-(3,5-Me2-Ph))]-NH2) | 183 ± 3.6 | 118 ± 3.3 | 116 ± 3.2 | 117 ± 1.9 | 185 ± 2.3 | 115 ± 3.8 | 113 ± 4.9 | 109 ± 2.2 |  |  |  |  |  |  |  |  |  |  |  | 
CCc1cc(OC)ccc1-c1ccc(CC(CNC(CCCc2ccccc2)C(N)=O)NC[C@H](CC(=O)O)NC(=O)[C@H](CO)NC(=O)[C@@H](NC(=O)C(C)(Cc2ccccc2F)NC(=O)[C@@H](NC(=O)CNC(=O)C(CCC#N)NC(=O)C(C)(C)NC(=O)[C@@H](N)Cc2c[nH]cn2)[C@H](C)O)[C@H](C)O)cc1 (single isomer, unassigned) [Seq. ID. 202] |  |  |  |  | 184 ± 2.5 | 115 ± 3.6 | 113 ± 4.2 | 110 ± 2.4 |  |  |  |  | 183 ± 5.1 | 122 ± 3.1 | 130 ± 2.3 | 148 ± 2.2 |  |  |  | 
CCc1cc(OC)ccc1-c1ccc(CC(NC(=O)[C@H](CC(=O)O)NC(=O)[C@H](CO)NC(=O)[C@@H](NC(=O)C(C)(Cc2ccccc2F)NC(=O)[C@@H](NC(=O)CNC(=O)C(CCC#N)NC(=O)C(C)(C)NC(=O)[C@@H](N)Cc2c[nH]cn2)[C@H](C)O)[C@H](C)O)C(=O)NC(CCCc2ccccc2F)C(N)=O)cc1 (single isomer, unassigned) [Seq. ID. 116] |  |  |  |  | 185 ± 2.1 | 115 ± 2.8 | 112 ± 4.9 | 111 ± 2.2 |  |  |  |  | 184 ± 5.0 | 122 ± 3.8 | 128 ± 2.1 | 149 ± 2.3 |  |  |  | 
CCc1cc(OC)ccc1-c1ccc(CC(NC(=O)[C@H](CC(=O)O)NC(=O)[C@H](CO)NC(=O)[C@@H](NC(=O)[C@H](Cc2ccccc2)NC(=O)[C@@H](NC(=O)CNC(=O)[C@H](CCC(N)=O)NC(=O)[C@H](C)NC(=O)[C@@H](N)Cc2c[nH]cn2)[C@@H](C)O)[C@@H](C)O)C(=O)NC(CCCc2cccc(Cl)c2)C(N)=O)cc1 (some centres unmarked) [Seq. ID. 15] (H-HAQGTFTSD[ξBip(2'-Et-4'-OMe)][ξNva(5-(3-Cl-Ph))]-NH2) | 180 ± 3.2 | 119 ± 3.2 | 117 ± 3.1 | 118 ± 1.8 | 183 ± 2.4 | 116 ± 3.1 | 112 ± 4.8 | 110 ± 2.5 |  |  |  |  |  |  |  |  |  |  |  | 
CCc1cc(OC)ccc1-c1ccc(CC(NC(=O)[C@H](CC(=O)O)NC(=O)[C@H](CO)NC(=O)[C@@H](NC(=O)[C@H](Cc2ccccc2)NC(=O)[C@@H](NC(=O)CNC(=O)C(CCC#N)NC(=O)C(C)(C)NC(=O)[C@@H](N)Cc2c[nH]cn2)[C@@H](C)O)[C@@H](C)O)C(=O)NC(CCCc2cc(C)cc(C)c2)C(N)=O)cc1 (single isomer, unassigned) [Seq. ID. 30] | 183 ± 3.6 | 117 ± 3.3 | 116 ± 3.2 | 117 ± 1.4 | 183 ± 2.4 | 119 ± 3.1 | 112 ± 4.8 | 110 ± 2.5 |  |  |  |  |  |  |  |  |  |  |  | 
CCc1cc(OC)ccc1-c1ccc(CC(NC(=O)[C@H](CC(=O)O)NC(=O)[C@H](CO)NC(=O)[C@@H](NC(=O)[C@H](Cc2ccccc2)NC(=O)[C@@H](NC(=O)CNC(=O)C(CCC#N)NC(=O)C(C)(C)NC(=O)[C@@H](N)Cc2c[nH]cn2)[C@@H](C)O)[C@@H](C)O)C(=O)NC(CCCc2ccc(Cl)cc2C)C(N)=O)cc1 (single isomer, unassigned) [Seq. ID. 32] |  |  |  |  | 181 ± 2.5 | 117 ± 3.3 | 112 ± 4.0 | 108 ± 2.9 |  |  |  |  |  |  |  |  | 182 ± 3.3 | 120 ± 3.6 | 127 ± 3.4 | 145 ± 2.1
CCc1cc(OC)ccc1-c1ccc(CC(C(=O)N(C)C(CCCc2ccccc2)C(N)=O)N(C)C(=O)[C@H](CC(=O)O)N(C)C(=O)[C@H](CO)NC(=O)[C@@H](NC(=O)C(C)(Cc2ccccc2F)NC(=O)[C@@H](NC(=O)CNC(=O)C(CCC#N)NC(=O)C(C)(C)NC(=O)[C@@H](N)Cc2c[nH]cn2)[C@H](C)O)[C@H](C)O)cc1 (single isomer, unassigned) [Seq. ID. 154] | 181 ± 4.1 | 117 ± 3.8 | 117 ± 3.0 | 117 ± 1.6 | 181 ± 2.5 | 117 ± 3.3 | 112 ± 4.0 | 108 ± 2.9 |  |  |  |  |  |  |  |  |  |  |  | 
CCc1cc(OC)ccc1-c1ccc(CC(NC(=O)[C@H](CC(=O)O)NC(=O)[C@H](CO)NC(=O)[C@@H](NC(=O)C(C)(Cc2ccccc2F)NC(=O)[C@@H](NC(=O)CNC(=O)C(CCC#N)NC(=O)C(C)(C)NC(=O)[C@@H](N)Cc2c[nH]cn2)[C@@H](C)O)[C@H](C)O)C(=O)NC(CCCc2ccccc2F)C(N)=O)cc1 (single isomer, unassigned) [Seq. ID. 120] | 182 ± 5.1 | 118 ± 2.1 | 116 ± 2.2 | 118 ± 2.4 | 184 ± 2.5 | 115 ± 1.6 | 113 ± 3.2 | 110 ± 2.4 |  |  |  |  |  |  |  |  |  |  |  | 
